Data as given in ChEMBL document CHEMBL6109121, “Discovery of Novel Sulfonylurea NLRP3 Inflammasome Inhibitor for the Treatment of Multiple Inflammatory Diseases” (J Med Chem, 2025).
Calls of active or inactive are those of the source. The rule behind the calls is not given here.

How the values were obtained:
[1] = Inhibition of NLRP3 inflammasome activation in LPS/ATP-stimulated male C57BL/6J mouse BMDM cells assessed as inhibition of IL-1beta secretion […] for 4 hrs followed by compound administration for 30 mins and measured after 1 hrs of ATP addition by ELISA; format: cell-based
[2] = Cytotoxicity against male C57BL/6J mouse BMDM cells; format: functional
[3] = Inhibition of NLRP3 inflammasome activation in human THP-1 cells assessed as inhibition of IL-1beta release; format: cell-based
Mus musculus [4] = experiment: Effect on TNF-alpha level in serum of LPS/ATP-induced acute peritonitis male C57BL/6J mouse model at 20 mg/kg, po preadministered with compound for 1 hrs followed by LPS addition for 2 hrs and measured 12 hrs post ATP administration by ELISA; format: functional, organism-based; details: time 13.0 hrs
Mus musculus [5] = experiment: Antidiabetic activity in HFD-fed STZ-induced diabetic kidney disease male C57BL/6J mouse model assessed as improvement of glucose tolerance at 20 mg/kg fed with high fat diet for 4 weeks followed by STZ administration for 5 days further administered with compound via gavage for 6 weeks and measured after 120 mins of glucose administration by OGTT; format: functional, organism-based; details: time 60600.0 min
Mus musculus [6] = experiment: Antidiabetic activity in HFD-fed STZ-induced diabetic kidney disease male C57BL/6J mouse model assessed as reduction in macrophage infiltration in kidney at 20 mg/kg fed with high fat diet for 4 weeks followed by STZ administration for 5 days and measured 6 weeks post compound administration via gavage by F4/80 immunostaining based analysis; format: functional, organism-based
Mus musculus [7] = experiment: Anti-colitis activity in DSS-induced acute ulcerative colitis male C57BL/6J mouse model assessed as reduction in body weight loss at 5 mg/kg, po preadministered with DSS for 7 days followed by 3 days of drinking water and measured after 10 days of compound administration; format: functional, organism-based; details: time 10.0 day
Mus musculus [8] = experiment: Anti-colitis activity in DSS-induced acute ulcerative colitis male C57BL/6J mouse model assessed as improvement in stool consistency at 5 mg/kg, po preadministered with DSS for 7 days followed by 3 days of drinking water and measured after 10 days of compound administration; format: functional, organism-based; details: time 10.0 day
Mus musculus [9] = experiment: Anti-colitis activity in DSS-induced acute ulcerative colitis male C57BL/6J mouse model assessed as reduction in fecal bleeding at 5 mg/kg, po preadministered with DSS for 7 days followed by 3 days of drinking water and measured after 10 days of compound administration; format: functional, organism-based; details: time 10.0 day
Mus musculus [10] = experiment: Anti-colitis activity in DSS-induced acute ulcerative colitis male C57BL/6J mouse model assessed as decrease in disease activity index score at 5 mg/kg, po preadministered with DSS for 7 days followed by 3 days of drinking water and measured after 10 days of compound administration; format: functional, organism-based; details: time 10.0 day
Mus musculus [11] = experiment: Anti-colitis activity in DSS-induced acute ulcerative colitis male C57BL/6J mouse model assessed as increase in colon length at 5 mg/kg, po preadministered with DSS for 7 days followed by 3 days of drinking water and measured after 10 days of compound administration; format: functional, organism-based; details: time 10.0 day
[12] = target: NACHT, LRR and PYD domains-containing protein 3 (Mus musculus) (UniProt Q8R4B8); details: C57BL/6J, dose 20.0 mg/kg, route po, time 13.0 hrs
NACHT, LRR and PYD domains-containing protein 3 (Mus musculus), sequence (Q8R4B8 whole entry, the tested form may be a part): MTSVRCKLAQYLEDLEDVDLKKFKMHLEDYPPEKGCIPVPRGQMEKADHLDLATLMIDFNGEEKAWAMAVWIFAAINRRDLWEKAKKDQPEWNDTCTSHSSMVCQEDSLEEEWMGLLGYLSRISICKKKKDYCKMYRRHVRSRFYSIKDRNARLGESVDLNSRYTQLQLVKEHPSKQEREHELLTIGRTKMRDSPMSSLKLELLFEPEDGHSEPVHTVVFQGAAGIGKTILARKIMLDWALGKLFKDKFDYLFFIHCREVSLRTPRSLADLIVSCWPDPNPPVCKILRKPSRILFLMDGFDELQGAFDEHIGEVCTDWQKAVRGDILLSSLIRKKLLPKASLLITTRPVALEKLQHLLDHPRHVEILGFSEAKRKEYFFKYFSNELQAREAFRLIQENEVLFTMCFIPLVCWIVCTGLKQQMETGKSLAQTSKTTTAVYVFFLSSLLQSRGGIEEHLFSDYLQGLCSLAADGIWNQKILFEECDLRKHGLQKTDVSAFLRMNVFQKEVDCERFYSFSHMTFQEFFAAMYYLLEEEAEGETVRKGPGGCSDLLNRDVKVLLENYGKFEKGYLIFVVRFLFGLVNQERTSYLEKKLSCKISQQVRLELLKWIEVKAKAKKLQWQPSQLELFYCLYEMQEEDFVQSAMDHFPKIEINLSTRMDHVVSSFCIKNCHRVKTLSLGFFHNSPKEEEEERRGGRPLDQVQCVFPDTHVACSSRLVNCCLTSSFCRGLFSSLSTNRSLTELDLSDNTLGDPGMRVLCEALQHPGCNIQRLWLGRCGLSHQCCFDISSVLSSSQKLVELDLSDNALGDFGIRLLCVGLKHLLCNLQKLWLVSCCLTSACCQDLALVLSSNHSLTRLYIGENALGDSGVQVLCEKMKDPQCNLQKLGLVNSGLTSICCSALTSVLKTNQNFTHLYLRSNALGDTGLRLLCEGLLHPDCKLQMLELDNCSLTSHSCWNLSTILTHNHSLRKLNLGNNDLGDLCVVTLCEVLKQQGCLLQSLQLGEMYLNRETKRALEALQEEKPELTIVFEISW

| IC50 [1] | SMILES | CC50 [2] | also measured |
| --- | --- | --- | --- |
| 0.724 µM | CCN1CCC(N(C)S(=O)(=O)NC(=O)Nc2c3c(cc4c2CCC4)CCC3)CC1 | > 100 µM | – |
| 35.1 µM | CC(C)(O)c1coc(S(=O)(=O)NC(=O)Nc2ccccc2Sc2ccccc2)c1 | > 100 µM | – |
| > 50 µM | Cc1ccc2cccc(NC(=O)NS(=O)(=O)N(C)C3CCN(C)CC3)c2n1 | > 100 µM | – |
| 0.317 µM | O=C(Nc1c2c(cc3c1CCC3)CCC2)NS(=O)(=O)N1CCc2ccccc2C1 | > 100 µM | – |
| 1.12 µM | O=C(Nc1c2c(cc3c1CCC3)CCC2)NS(=O)(=O)N1CCC(F)(F)CC1 | > 100 µM | – |
| 0.979 µM | CN1CCC(NS(=O)(=O)NC(=O)Nc2c3c(cc4c2CCC4)CCC3)CC1 | > 100 µM | – |
| 2.9 µM | CC(C)N1CCC(NS(=O)(=O)NC(=O)Nc2c3c(cc4c2CCC4)CCC3)CC1 | > 100 µM | – |
| > 50 µM | CN(C1CCN(Cc2ccccc2)CC1)S(=O)(=O)NC(=O)Nc1c2c(cc3c1CCC3)CCC2 | > 100 µM | – |
| > 50 µM | CC(C)(O)c1coc(S(=O)(=O)NC(=O)Nc2ccccc2C(=O)c2ccoc2)c1 | > 100 µM | – |
| > 50 µM | CC(C)(O)c1coc(S(=O)(=O)NC(=O)Nc2ccccc2C(=O)c2ccccn2)c1 | > 100 µM | – |
| 1.95 µM | O=C(Nc1c2c(cc3c1CCC3)CCC2)NS(=O)(=O)NC1CCN(C2CC2)CC1 | > 100 µM | – |
| 19.8 µM | C=C(c1ccccc1)c1ccccc1NC(=O)NS(=O)(=O)c1cc(C(C)(C)O)co1 | > 100 µM | – |
| > 50 µM | CC(C)(O)c1coc(S(=O)(=O)NC(=O)Nc2ccccc2Oc2ccccc2)c1 | > 100 µM | – |
| 0.139 µM | O=C(Nc1c2c(cc3c1CCC3)CCC2)NS(=O)(=O)Nc1cnn(C2CCOCC2)c1 | > 100 µM | – |
| 4.43 µM | CN(c1ccncc1)S(=O)(=O)NC(=O)Nc1c2c(cc3c1CCC3)CCC2 | > 100 µM | – |
| 0.155 µM | Cn1cc(NS(=O)(=O)NC(=O)Nc2c3c(cc4c2CCC4)CCC3)cn1 | > 100 µM | – |
| > 50 µM | CN1CCC(N(C)S(=O)(=O)NC(=O)Nc2cccc3c2OCO3)CC1 | > 100 µM | – |

| IC50 [1] | SMILES | CC50 [2] | also measured |
| --- | --- | --- | --- |
| 0.122 µM | CN1CCC(N(C)S(=O)(=O)NC(=O)Nc2c3c(cc4c2CCC4)CCC3)C1 (centres undefined) | > 100 µM | – |
| 3.82 µM | CC(C)(O)c1coc(S(=O)(=O)NC(=O)Nc2ccccc2C(=O)c2ccccc2)c1 | > 100 µM | – |
| > 50 µM | CN1CCC(N(C)S(=O)(=O)NC(=O)Nc2cccc3c2oc2ccccc23)CC1 | > 100 µM | – |
| 0.036 µM | CC(C)(O)c1coc(S(=O)(=O)NC(=O)Nc2c3c(cc4c2CCC4)CCC3)c1 | – | IC50 [3]: 0.058 µM; Activity (Mus musculus [4]): inactive; Activity (Mus musculus [5]): inactive; Activity (Mus musculus [6]): inactive; Activity (Mus musculus [7]): Active; Significant Difference Not Observed; Activity (Mus musculus [8]): Active; Activity (Mus musculus [9]): Active; Activity (Mus musculus [10]): Active; Activity (Mus musculus [11]): inactive; inhibition [12]: Active |
| > 50 µM | CC(C)(O)c1coc(S(=O)(=O)NC(=O)Nc2ccccc2C(=O)N2CCOCC2)c1 | > 100 µM | – |
| 19.1 µM | CC(C)(O)c1coc(S(=O)(=O)NC(=O)Nc2ccccc2C(=O)N2CCCC2)c1 | > 100 µM | – |
| > 50 µM | CN1CCC(N(C)S(=O)(=O)NC(=O)Nc2cccc3c2C(=O)c2ccccc2-3)CC1 | > 100 µM | – |
| > 50 µM | CN1CCC(N(C)S(=O)(=O)NC(=O)Nc2cc(C(C)(C)C)ccc2-c2ccc(C(C)(C)C)cc2)CC1 | 10.2 µM | – |
| 18 µM | CN1CCC(N(C)S(=O)(=O)NC(=O)Nc2ccccc2C(=O)c2ccccc2)CC1 | > 100 µM | – |
| > 50 µM | CN1CCC(N(C)S(=O)(=O)NC(=O)Nc2cccc3c2NC(=O)C3)CC1 | > 100 µM | – |
| > 50 µM | CN(C)C(=O)c1ccccc1NC(=O)NS(=O)(=O)c1cc(C(C)(C)O)co1 | > 100 µM | – |
| 2.99 µM | CN1CCC(n2cc(NS(=O)(=O)NC(=O)Nc3c4c(cc5c3CCC5)CCC4)cn2)CC1 | > 100 µM | – |
| > 50 µM | CC(C)(O)c1coc(S(=O)(=O)NC(=O)Nc2ccccc2Cc2ccccc2)c1 | > 100 µM | – |
| > 50 µM | CN1CCC(N(C)S(=O)(=O)NC(=O)Nc2ccc3c(c2)Cc2ccccc2-3)CC1 | > 100 µM | – |
| 2.03 µM | O=C(Nc1c2c(cc3c1CCC3)CCC2)NS(=O)(=O)N1CCNC2(CC2)C1 | > 100 µM | – |
| 5.37 µM | CC(=O)N1CCC(NS(=O)(=O)NC(=O)Nc2c3c(cc4c2CCC4)CCC3)CC1 | > 100 µM | – |
| 0.544 µM | CN(C1CCOCC1)S(=O)(=O)NC(=O)Nc1c2c(cc3c1CCC3)CCC2 | > 100 µM | – |

| SMILES | IC50 [1] | CC50 [2] | also measured |
| --- | --- | --- | --- |
| O=C(Nc1c2c(cc3c1CCC3)CCC2)NS(=O)(=O)N1CCN2CCC1CC2 | 0.185 µM | > 100 µM | – |
